Laboratory results: patent US9393221B2, “Methods and compounds for reducing intracellular lipid storage” (THE GENERAL HOSPITAL CORPORATION, priority 2011, dated 2016)
Where a name gives a salt, the structure may show the parent alone. Read-outs that look alike come from different tables or passages of the source.

Tests used:
NLSD-M human iPSCs = experiment: TG content in differentiated human iPSCs; format: cell-based; conditions: differentiated human NLSD-M iPSCs (FIG. 9b)
ATGL-KO iPSCs [1] = experiment: High throughput iPSC chemical screening, Oil Red O (ORO) lipid accumulation; format: cell-based, mouse; conditions: for Rank in normalized ORO score from screen: glycolytic switch compounds
WT iPSCs = experiment: Cellular metabolism assay (OCR, ECAR); format: cell-based, mouse; conditions: for extracellular acidification rate (ECAR) / oxygen consumption rate (OCR): day 9 differentiated cells pre-treated overnight at screen concentration; for OCR/ECAR ratio after addition of CCCP: pre-treated cells (FIG. 7c)
Experimental: (§1) FIGS. 7a-7g depict that glycolytic switch inducers modulate the metabolic profile of WT and KO iPSCs. Measurement of (FIG. 7a) oxygen consumption rate (OCR) and (FIG. 7b) extracellular acidification rate (ECAR) in WT and KO iPSCs at day 10 of differentiation following compound pre-treatment for 16 h. Data are expressed as mean±s.d. (n=10 samples, with 3 measurements each) relative to DMSO-treated WT cells. (*P<0.001, student's t-test between compound-treated and DMSO ? treated cells of same type. **P<0.001, student's t-test between DMSO-treated WT and KO cells). Measurement of OCAR/ECAR ratios for drug-treated (FIG. 7c) WT and (FIG. 7d) KO iPSCs following treatment carbonyl cyanide m-chlorophenyl hydrazone (CCCP), at the time indicated (arrow). Antimycin, an electron transport chain inhibitor, was added to each well at the end of the assay to verify that mitochondrial function was intact in drug-treated cells. A schematic model of ATGL ? mediated lipid metabolism in shown for (FIG. 7e) WT cells, (FIG. 7f) KO cells, and (FIG. 7g) drug-treated KO cells.
(§2) We next investigated whether the top-scoring compounds with reported glycolytic switch properties could in fact modulate the OCR and ECAR of differentiated WT and KO iPSCs. We pre-treated day 9 differentiated cells overnight with mefloquine, vinpocetine, and perhexyline at their screen concentrations (Table 3) and measured the changes in OCR and ECAR. […] This is consistent with the increased adaptation to glucose in ATGL-KO cells.
(§3) To determine whether the glycolytic switch inducers work through common or distinct mechanisms, we next examined how the responses of ATGL-KO and WT cells to challenge with carbonyl cyanide m-chlorophenyl hydrazone (CCCP) differed upon pre-treatment with glycolytic switch inducers. CCCP is an uncoupler of the mitochondrial hydrogen gradient that induces maximal cellular oxidative respiration (Goldsby et al., 1963). […] This was due entirely to an increase in OCAR, as the ECAR levels remained relatively unchanged (data not shown).
(§4) ATGL-KO and WT iPSCs were differentiated as EBs to day 9, then collagenase-dissociated and re-plated onto gelatin-coated XF24 plates (Seahorse Bioscience, Andover, Mass.) at a density of 250,000 cells/well. Following an overnight incubation (12-16 hrs) in differentiation medium supplemented with drugs or DMSO, the cells were acclimated to atmospheric CO2 in drug-containing buffer-free medium (Wu, M. et al., 2007) for 1 hour at 37° C. Oxygen consumption rates (OCR) and extracellular acidification rates (ECAR) were measured on the Seahorse Extracellular Flux 24 Analyzer using previously established procedures (Gohil et al., 2010; Wu, M. et al., 2007) and normalized against cell number as assessed by the resazurin assay described above. In all wells, antimycin, an electron transport chain inhibitor, was added at the end of the assay to ascertain that mitochondrial function in the drug-treated cells had been intact and that the OCR and ECAR results were not due to direct mitochondrial toxicity effects from drug treatment.

ATGL-KO iPSCs [2] = experiment: Cellular metabolism assay (OCR, ECAR); format: cell-based, mouse; conditions: for extracellular acidification rate (ECAR) / oxygen consumption rate (OCR): day 9 differentiated cells pre-treated overnight at screen concentration; for OCR/ECAR ratio after addition of CCCP: pre-treated cells (FIG. 7d)
Experimental: as §1, §2, §3, §4

ATGL-KO mice = experiment: 18-week observer-blinded placebo-controlled treatment study; format: in vivo, mouse; conditions: for cardiac function (echocardiography): 14 weeks of age; for overall triglyceride content in the heart: 14 weeks old ATGL-KO mice (FIG. 8d)
Source text: FIGS. 8a-8f show graphs of the in vivo validation of the drug hit efficacy on ATGL-KO mice. (FIG. 8a) Kaplan-Meier survival plot of ATGL-KO mice treated with Mefloquine (N=15), Perhexyline (N=15), Vinpocetin low dose (N=15), Vinpocetin high dose (N=15), or water alone (N=15) (FIG. 8b) Contractile function of wild type mice treated with Mefloquine (Mef), Perhexyline (Per), Vinpocetin (Vin), and water (None) at 3 weeks of age before drug treatment (black) and at 18 weeks of age (white) after drug treatment. (FIG. 8c) Contractile function of ATGL-KO mice treated with Mef, Per, Vin, and water at 3 weeks of age before drug treatment (black) and at 10 (gray), and 14 (white) weeks of age after drug treatment. (FIG. 8d) Measurement of triglyceride content in hearts of 14 weeks old wild type (WT) and ATGL-KO (KO) mice after treatment with the indicated drugs. V (H)—vinpocetin high dose, V (L)—vinpocetin low dose. (FIG. 8e) Measurement of triglyceride content in the liver, lung, and kidney of WT mice (gray) and ATGL-KO mice treated with Per (red), Mef (green), V (H) (blue), V (L) (orange), or water (black). (FIG. 8f) Quantitative PCR analysis of metabolic gene expression in the hearts of 14 weeks old ATGL-KO mice treated with water (black), Per (red), and Mef (green) and in the hearts of age-matched WT mice (gray).
We designed an 18-week observer-blinded placebo-controlled study treating both wild type and ATGL-KO mice with mefloquine, perhexyline, and high and low doses of vinpocetin starting from 3 weeks after birth. We assess the survival of each animal throughout the entire treatment course. We also measured the cardiac function of each animal before treatment and at 10 and 14 weeks of age. […] The effect of these drugs on triglyceride content was observed variably in other tissues such as liver, lung, and kidney (FIG. 8e). While these drugs were able to elicit a similar reduction in triglyceride content, they appear to do so by recruiting genes involved in distinct pathways. (FIG. 8f)

[3] = normalized ORO level vs DMSO-treated cells, compound present during 7 days differentiation, 96-well, negative = decrease in lipid accumulation

Compound: OC(c1cc(C(F)(F)F)nc2c(C(F)(F)F)cccc12)C1CCCCN1 (stereo not drawn) [Mefloquine hydrochloride]
- intracellular lipid content (TG content) (NLSD-M human iPSCs): significantly reduce intracellular lipid content
- Rank in normalized ORO score from screen (ATGL-KO iPSCs [1]): 3
- Z-score (ATGL-KO iPSCs [1]; [3]): −2.3573
- extracellular acidification rate (ECAR) (WT iPSCs): increased ECAR
- oxygen consumption rate (OCR) (WT iPSCs): decreased OCR
- OCR/ECAR ratio after addition of CCCP (WT iPSCs): increased the ratio of OCAR/ECAR
- extracellular acidification rate (ECAR) (ATGL-KO iPSCs [2]): increased ECAR
- oxygen consumption rate (OCR) (ATGL-KO iPSCs [2]): decreased OCR
- OCR/ECAR ratio after addition of CCCP (ATGL-KO iPSCs [2]): increased the ratio of OCAR/ECAR
- cardiac function (echocardiography) (ATGL-KO mice): echocardiographic improvements in cardiac function
- overall triglyceride content in the heart (ATGL-KO mice): reduction in the overall triglyceride content in the heart

Compound: C1CCC(C(CC2CCCCN2)C2CCCCC2)CC1 (stereo not drawn) [Perhexiline maleate]
- Rank in normalized ORO score from screen (ATGL-KO iPSCs [1]): 4
- Z-score (ATGL-KO iPSCs [1]; [3]): −2.3117
- extracellular acidification rate (ECAR) (WT iPSCs): increased ECAR
- oxygen consumption rate (OCR) (WT iPSCs): decreased OCR
- OCR/ECAR ratio after addition of CCCP (WT iPSCs): no increase in the OCR/ECAR ratio
- impact on OCR in KO cells compared to WT cells (ATGL-KO iPSCs [2]): smaller impact on OCR in KO cells compared to WT cells
- extracellular acidification rate (ECAR) (ATGL-KO iPSCs [2]): increased ECAR
- oxygen consumption rate (OCR) (ATGL-KO iPSCs [2]): decreased OCR
- OCR/ECAR ratio after addition of CCCP (ATGL-KO iPSCs [2]): no increase in the OCR/ECAR ratio
- cardiac function (echocardiography) (ATGL-KO mice): echocardiographic improvements in cardiac function
- overall triglyceride content in the heart (ATGL-KO mice): reduction in the overall triglyceride content in the heart

Compound: CCOC(=O)C1=C[C@]2(CC)CCCN3CCc4c(n1c1ccccc41)[C@@H]32 [Vinpocetine]
- Rank in normalized ORO score from screen (ATGL-KO iPSCs [1]): 2
- Z-score (ATGL-KO iPSCs [1]; [3]): −2.4105
- extracellular acidification rate (ECAR) (WT iPSCs): increased ECAR
- oxygen consumption rate (OCR) (WT iPSCs): decreased OCR
- OCR/ECAR ratio after addition of CCCP (WT iPSCs): increased the ratio of OCAR/ECAR
- extracellular acidification rate (ECAR) (ATGL-KO iPSCs [2]): increased ECAR
- oxygen consumption rate (OCR) (ATGL-KO iPSCs [2]): decreased OCR
- OCR/ECAR ratio after addition of CCCP (ATGL-KO iPSCs [2]): increased the ratio of OCAR/ECAR
- overall triglyceride content in the heart (ATGL-KO mice): reduction in the overall triglyceride content in the heart

Compound: (−)-MK 801 hydrogen maleate
- Z-score (ATGL-KO iPSCs [1]; [3]): −0.2074

Compound: (−)-Quinpirole hydrochloride
- Z-score (ATGL-KO iPSCs [1]; [3]): 1.311

Compound: Alverine citrate salt
- Z-score (ATGL-KO iPSCs [1]; [3]): −0.9516

Compound: Antimycin A
- Z-score (ATGL-KO iPSCs [1]; [3]): 30.555

Compound: Avermectin B1
- Z-score (ATGL-KO iPSCs [1]; [3]): −0.9704

Compound: Beta-Escin
- Z-score (ATGL-KO iPSCs [1]; [3]): −1.7261

Compound: Bromocryptine mesylate
- Z-score (ATGL-KO iPSCs [1]; [3]): −0.775

Compound: Butirosin disulfate salt
- Z-score (ATGL-KO iPSCs [1]; [3]): 0.2121

Compound: Carbinoxamine maleate salt
- Z-score (ATGL-KO iPSCs [1]; [3]): 0.218

Compound: Clofilium tosylate
- Z-score (ATGL-KO iPSCs [1]; [3]): 13.6063

Compound: Colistin sulfate
- Z-score (ATGL-KO iPSCs [1]; [3]): −0.5041

Compound: Cotinine (−)
- Z-score (ATGL-KO iPSCs [1]; [3]): 0.644

Compound: Cyanocobalamin
- Z-score (ATGL-KO iPSCs [1]; [3]): −1.3236

Compound: Cytisine (−)
- Z-score (ATGL-KO iPSCs [1]): 1.049

Compound: Deptropine citrate
- Z-score (ATGL-KO iPSCs [1]; [3]): −0.0889

Compound: Dihydroergotamine tartrate
- Z-score (ATGL-KO iPSCs [1]; [3]): −0.7032

Compound: Dihydroergotoxine mesylate
- Z-score (ATGL-KO iPSCs [1]; [3]): 1.217

Compound: Eburnamonine (−)
- Z-score (ATGL-KO iPSCs [1]; [3]): −1.0688

Compound: Foliosidine
- Z-score (ATGL-KO iPSCs [1]; [3]): −0.7349

Compound: Guanadrel sulfate
- Z-score (ATGL-KO iPSCs [1]; [3]): −0.4661

Compound: Helveticoside
- Z-score (ATGL-KO iPSCs [1]; [3]): −0.1112

Compound: Ifenprodil tartrate
- Z-score (ATGL-KO iPSCs [1]; [3]): 0.8399

Compound: Iobenguane sulfate
- Z-score (ATGL-KO iPSCs [1]; [3]): −0.2715

Compound: Iproniazide phosphate
- Z-score (ATGL-KO iPSCs [1]; [3]): −0.4106

Compound: Isoetharine mesylate salt
- Z-score (ATGL-KO iPSCs [1]; [3]): −0.7902

Compound: Ketanserin tartrate hydrate
- Z-score (ATGL-KO iPSCs [1]; [3]): 1.256

Compound: Lycorine hydrochloride
- Z-score (ATGL-KO iPSCs [1]; [3]): 21.7885

Compound: Mephentermine hemisulfate
- Z-score (ATGL-KO iPSCs [1]; [3]): 0.04889

Compound: Merbromin
- Rank in normalized ORO score from screen (ATGL-KO iPSCs [1]): 743
- Z-score (ATGL-KO iPSCs [1]; [3]): 0.2933

Compound: Pizotifen malate
- Z-score (ATGL-KO iPSCs [1]; [3]): −1.2994

Compound: Pridinol methanesulfonate salt
- Z-score (ATGL-KO iPSCs [1]; [3]): 1.97

Compound: Pyrantel tartrate
- Z-score (ATGL-KO iPSCs [1]; [3]): −0.1933

Compound: Retrorsine
- Z-score (ATGL-KO iPSCs [1]; [3]): 0.08676

Compound: S(−)Eticlopride hydrochloride
- Z-score (ATGL-KO iPSCs [1]; [3]): −0.7335

Compound: Solanine alpha
- Z-score (ATGL-KO iPSCs [1]; [3]): −1.7798

Compound: Spiramycin
- Z-score (ATGL-KO iPSCs [1]; [3]): −1.0612

Compound: Terbutaline hemisulfate
- Z-score (ATGL-KO iPSCs [1]; [3]): 2.278

Compound: Thioproperazine dimesylate
- Z-score (ATGL-KO iPSCs [1]; [3]): −0.4051

Compound: Timolol maleate salt
- Z-score (ATGL-KO iPSCs [1]; [3]): 0.4592

Compound: Trimeprazine tartrate
- Z-score (ATGL-KO iPSCs [1]; [3]): −1.418

Compound: Trimipramine maleate salt
- Z-score (ATGL-KO iPSCs [1]; [3]): −0.138

Compound: Tropicamide
- Z-score (ATGL-KO iPSCs [1]; [3]): 0.5083

Compound: Tyloxapol
- Z-score (ATGL-KO iPSCs [1]; [3]): 0.9571

Compound: Verteporfin
- Z-score (ATGL-KO iPSCs [1]; [3]): −0.2331

Compound: Viomycin sulfate
- Z-score (ATGL-KO iPSCs [1]; [3]): 1.64

Compound: Vitamin K2
- Z-score (ATGL-KO iPSCs [1]; [3]): 0.6129
